Results reported in patent US8288375B2, “Fungicidal bicyclic pyrazoles” (E.I. du Pont de Nemours and Company, priority 2007, dated 2012).

Columns and labels:
Format in all cases: in vivo
[1] = test system: Erysiphe graminis f. sp. tritici; assay: Test A: wheat powdery mildew, test suspension sprayed on wheat seedlings, disease rating; details: 200 ppm test suspension, 100 = 100% disease control, 0 = no control; for pest or weed control at 200 ppm: Blumeria graminis, 192 h
[2] = test system: Puccinia recondite f sp. tritici; assay: Test B: wheat leaf rust, test suspension sprayed on wheat seedlings, disease rating; details: 200 ppm test suspension; for pest or weed control at 200 ppm: Puccinia, 192 h;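 for all read-outs here: 200 ppm unless marked * meaning 40 ppm or ** meaning 10 ppm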
Fusarium graminearum = assay: whole plant or invertebrate; details: for Test C disease control rating: 200 ppm test suspension; for pest or weed control at 200 ppm: Fusarium graminearum, in Triticum aestivum, 192 h, read-out: Test C disease control rating
Septoria nodorum = assay: Test D: wheat glume blotch, test suspension sprayed on wheat seedlings, disease rating; details: 200 ppm test suspension; for pest or weed control at 200 ppm: Parastagonospora nodorum, 216 h
Septoria tritici = assay: Test E: wheat leaf blotch, test suspension sprayed on wheat seedlings, disease rating; details: 200 ppm test suspension; for pest or weed control at 200 ppm: Zymoseptoria tritici, 504 h;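 for all read-outs here: 200 ppm unless marked * meaning 40 ppm or ** meaning 10 ppm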
Phytophthora infestans = assay: whole plant or invertebrate; details: for Test J disease control rating: 200 ppm test suspension; for pest or weed control at 200 ppm: Phytophthora infestans, in Solanum lycopersicum, 120 h, read-out: Test J disease control rating
Pythium aphanidermatum = assay: Test L: bluegrass pythium blight, test suspension sprayed on bluegrass seedlings, disease rating; details: 200 ppm test suspension; for pest or weed control at 200 ppm: Pythium aphanidermatum, 120 h;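 for all read-outs here: 200 ppm unless marked * meaning 40 ppm or ** meaning 10 ppm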

| SMILES | Test A disease control rating [1] | Test B disease control rating [2] | Test C disease control rating (Fusarium graminearum) | Test D disease control rating (Septoria nodorum) | Test E disease control rating (Septoria tritici) | Test J disease control rating (Phytophthora infestans) | Test L disease control rating (Pythium aphanidermatum) | pest or weed control at 200 ppm [1] | pest or weed control at 200 ppm [2] | pest or weed control at 200 ppm (Fusarium graminearum) | pest or weed control at 200 ppm (Septoria nodorum) | pest or weed control at 200 ppm (Septoria tritici) | pest or weed control at 200 ppm (Phytophthora infestans) | pest or weed control at 200 ppm (Pythium aphanidermatum) |
| --- | --- | --- | --- | --- | --- | --- | --- | --- | --- | --- | --- | --- | --- | --- |
| CC(CO)Nc1nccc(-c2c(-c3ccccc3F)nn3c2CCCC3)n1 (centres unmarked) [compound 38] | 0% | 94% | 96% | 64% | 92% | 95% | 99% | – | – | – | – | – | – | – |
| CC(C)CNc1nccc(-c2c(-c3ccccc3F)nn3c2CCC3)n1 [compound 98] | 0% | 74% | 97% | 82% | 95% | 88% | 99% | – | – | – | – | – | – | – |
| Fc1ccc(-c2nn3c(c2-c2ccnc(NC4CCOCC4)n2)CCCC3)cc1 [compound 49] | 76% | 99% | 100% | 100% | 90% | 100% | 99% | – | – | – | – | – | – | – |
| CC(CO)Nc1nccc(-c2c(-c3ccc(F)cc3)nn3c2CSCC3)n1 (centres unmarked) [compound 111] | 21% | 95% | 95% | 64% | 31% | 80% | 100% | – | – | – | – | – | – | – |
| Fc1ccc(-c2nn3c(c2-c2ccnc(Oc4ccc(-n5cccc5)cc4)n2)CCCC3)cc1 [Compound 106] | 0% | 94% | 92% | 69% | 72% | 9% | 0% | – | – | – | – | – | – | – |
| OCCCNc1nccc(-c2c(-c3ccc(F)cc3)nn3c2CCCC3)n1 [compound 37] | 70% | 86% | 96% | 0% | 68% | 95% | 93% | – | – | – | – | – | – | – |
| CC(CO)Nc1nccc(-c2c(-c3ccsc3)nn3c2COCC3)n1 (centres unmarked) [compound 124] | 0% | 86% | 98% | 60% | 54% | 66% | 99% | – | – | – | – | – | – | – |
| CC(C)Nc1nccc(-c2c(-c3ccc(F)cc3)nn3c2CSCC3)n1 [compound 110] | 0% | 95% | 92% | 60% | 17% | 99% | 100% | – | – | – | – | – | – | – |
| Cc1cc(-c2nn3c(c2-c2ccnc(NC4CC4)n2)COCC3)ccc1F [compound 119] | 61% | 76% | 100% | 99% | 87% | 93% | 92% | – | – | – | – | – | – | – |
| CC(=O)Nc1nccc(-c2c(-c3ccc(F)cc3)nn3c2CCCC3)n1 [Compound 52, N-[4-[2-(4-fluorophenyl)-4,5,6,7-tetrahydropyrazolo[1,5-a]pyridin-3-yl]-2-pyrimidinyl]acetamide] | – | – | – | – | – | – | – | 0% | 100% | 99% | 97% | 98% | 95% | 100% |
| CC(=O)OCC(C)Nc1nccc(-c2c(-c3ccc(F)cc3)nn3c2CCCC3)n1 (centres unmarked) [compound 67] | 0% | 100% | 100% | 78% | 93% | 99% | 100% | – | – | – | – | – | – | – |
| Cc1ccccc1-c1nn2c(c1-c1ccnc(NC(C)C)n1)CCCC2 [compound 45] | 41% | 89% | 0% | 60% | 97% | 76% | 85% | – | – | – | – | – | – | – |
| CC(C)Nc1nccc(-c2c(-c3ccccc3F)nn3c2CCC3)n1 [compound 97] | 0% | 55% | 100% | 82% | 61% | 96% | 100% | – | – | – | – | – | – | – |
| Cc1cc(-c2nn3c(c2-c2ccnc(NC(C)CO)n2)COCC3)ccc1F (centres unmarked) [compound 123] | 0% | 90% | 99% | 0% | 31% | 91% | 100% | – | – | – | – | – | – | – |
| CC(C)Nc1nccc(-c2c(-c3ccsc3)nn3c2COCC3)n1 [compound 118] | 0% | 86% | 98% | 78% | 82% | 80% | 99% | – | – | – | – | – | – | – |
| COCC(C)Nc1nccc(-c2c(-c3cccc(F)c3)nn3c2CCC3)n1 (centres unmarked) [compound 100] | 0% | 89% | 99% | 90% | 92% | 98% | 100% | – | – | – | – | – | – | – |
| Fc1ccc(-c2nn3c(c2-c2ccnc(NC4CC4)n2)COCC3)c(F)c1 [compound 126] | 0% | 86% | 99% | 82% | 70% | 87% | 99% | – | – | – | – | – | – | – |
| CC1CN1c1nccc(-c2c(-c3ccc(F)cc3)nn3c2CCCC3)n1 (centres unmarked) [compound 81] | 0% | 98% | 98% | 87% | 100% | 99% | 95% | – | – | – | – | – | – | – |
| Fc1ccc(-c2nn3c(c2-c2ccnc(N4CCC4)n2)CCCC3)cc1 [compound 82] | 81% | 91% | 96% | 60% | 97% | 99% | 0% | – | – | – | – | – | – | – |
| COCC(C)Nc1nccc(-c2c(-c3ccc(F)cc3F)nn3c2CSC3)n1 (centres unmarked) [Compound 83, 4-[2-(2,4-difluorophenyl)-4H,6H-pyrazolo[1,5-c]thiazol-3-yl]-N-(2-methoxy-1-methylethyl)-2-pyrimidinamine] | – | – | – | – | – | – | – | 0% | 0% | 0% | 60% | 67% | 93% | 99% |
| CC(C)Nc1nccc(-c2c(-c3ccc(F)cc3)nn3c2CCCC3)n1.Cl [compound 69] | 59% | 97% | 100% | 99% | 100% | 97% | 100% | – | – | – | – | – | – | – |
| Fc1ccc(-c2nn3c(c2-c2ccnc(NCC4CCCO4)n2)CCCC3)cc1 (centres unmarked) [compound 34] | 96% | 100% | 98% | 100% | 94% | 91% | 100% | – | – | – | – | – | – | – |
| Cc1cc(-c2nn3c(c2-c2ccnc(NC(C)C)n2)COCC3)ccc1F [compound 120] | 86% | 90% | 100% | 100% | 95% | 88% | 98% | – | – | – | – | – | – | – |
| CC(COC(=O)CCC(=O)O)Nc1nccc(-c2c(-c3ccc(F)cc3)nn3c2CCCC3)n1 (centres unmarked) [compound 66] | 0% | 88% | 83% | 0% | 72% | 97% | 100% | – | – | – | – | – | – | – |
| Fc1ccc(Nc2nccc(-c3c(-c4ccc(F)cc4)nn4c3CCCC4)n2)cc1 [compound 40] | 0% | 85% | 84% | 99% | 98% | 0% | 0% | – | – | – | – | – | – | – |
| CC(C)(CO)Nc1nccc(-c2c(-c3ccc(F)cc3)nn3c2CCCC3)n1 [compound 30] | 0% | 91% | 92% | 69% | 93% | 47% | 0% | – | – | – | – | – | – | – |
